The values below come from ChEMBL document CHEMBL4145469, “Part II: New candidates of pyrazole-benzimidazole conjugates as checkpoint kinase 2 (Chk2) inhibitors” (Eur J Med Chem, 2018).

The nature of this series: Toxicity in Sprague-Dawley rat assessed as mortality administered as po single dose measured up to 1 month post dose. Type of series: organism-based. The following applies: in vivo.

Regarding `Cc1nn(-c2ccccc2)c(Oc2ccc(-c3nc4cc([N+](=O)[O-])ccc4[nH]3)cc2)c1/C=N/NC(N)=O`, the LD50 at 1 month amounted to 500 mg/kg.

The LD50 is the dose at which mortality reaches 50%.
